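Cultured in 96-well plates, cells were exposed to test compound for 48 hours across five concentrations. Abbreviation: GI50, concentration required for 50% inhibition of growth. TGI: total growth inhibition.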
Tests used:
Experiment in all cases: NCI tumour cell line growth inhibition, 48 h
[1] = tested on: RPMI-8226 leukemia
[2] = tested on: HOP-92 NSCLC
[3] = tested on: SF-539 CNS
[4] = tested on: ACHN renal
[5] = tested on: SK-MEL-5 melanoma
[6] = tested on: NCI/ADR-RES ovarian
[7] = tested on: DU-145 prostate
[8] = tested on: M14 melanoma
[9] = tested on: NCI-H522 lung
[10] = tested on: U251 CNS
[11] = tested on: MCF7 breast
[12] = tested on: HS 578T breast
[13] = tested on: TK-10 renal
[14] = tested on: T-47D breast
[15] = tested on: MDA-MB-231 breast
[16] = tested on: A549 NSCLC
[17] = tested on: NCI-H460 lung
[18] = tested on: A498 renal
[19] = tested on: SF-268 CNS
[20] = tested on: UO-31 renal
[21] = tested on: SK-OV-3 ovarian
[22] = tested on: IGROV1 ovarian
[23] = tested on: OVCAR-3 ovarian
[24] = tested on: HT29 colon
[25] = tested on: HOP-62 NSCLC
[26] = tested on: MDA-MB-435
[27] = tested on: HL-60(TB) leukemia
[28] = tested on: OVCAR-5 ovarian
[29] = tested on: MDA-MB-468 breast
[30] = tested on: SN12C renal
[31] = tested on: SF-295 CNS
[32] = tested on: MOLT-4 leukemia
[33] = tested on: SK-MEL-28 melanoma
[34] = tested on: 786-0 renal
[35] = tested on: SR leukemia
[36] = tested on: LOX IMVI melanoma
[37] = tested on: RXF 393 renal
[38] = tested on: COLO 205 colon
[39] = tested on: NCI-H226 lung
[40] = tested on: UACC-62 melanoma
[41] = tested on: K-562 leukemia
[42] = tested on: CCRF-CEM leukemia
[43] = tested on: HCC-2998 colon
[44] = tested on: SW-620 colon
[45] = tested on: MALME-3M melanoma
[46] = tested on: PC-3 prostate
[47] = tested on: OVCAR-4 ovarian
[48] = tested on: KM12 colon
[49] = tested on: SNB-19 CNS
[50] = tested on: BT-549 breast
[51] = tested on: NCI-H23 lung
[52] = tested on: HCT-15 colon
[53] = tested on: EKVX NSCLC
[54] = tested on: CAKI-1 renal
[55] = tested on: OVCAR-8 ovarian
[56] = tested on: UACC-257 melanoma

COc1ccc2nc(Cl)c(-c3cc(-c4ccccc4)nc(N)n3)cc2c1
GI50 [1]: 3.31 µM
TGI [1]: > 100 µM
GI50 [2]: 11.3 µM
TGI [2]: 62 µM
GI50 [3]: 1.89 µM
TGI [3]: 3.92 µM
GI50 [4]: 10.6 µM
TGI [4]: 30.8 µM
GI50 [5]: 12.2 µM
TGI [5]: 24.6 µM
GI50 [6]: 4.77 µM
TGI [6]: 36 µM
GI50 [7]: 4.03 µM
TGI [7]: > 100 µM
GI50 [8]: 4.33 µM
TGI [8]: 25.9 µM
GI50 [9]: 11.7 µM
TGI [9]: 27.4 µM
GI50 [10]: 3.26 µM
TGI [10]: 13.2 µM
GI50 [11]: 2.82 µM
TGI [11]: 12.8 µM
GI50 [12]: 20.8 µM
TGI [12]: > 100 µM
GI50 [13]: 22.1 µM
TGI [13]: 90.2 µM
GI50 [14]: 7.94 µM
TGI [14]: > 100 µM
GI50 [15]: 6.97 µM
TGI [15]: 38.8 µM
GI50 [16]: 21.5 µM
TGI [16]: > 100 µM
GI50 [17]: 3.58 µM
TGI [17]: 13.5 µM
GI50 [18]: 25.9 µM
TGI [18]: > 100 µM
GI50 [19]: 28.1 µM
TGI [19]: > 100 µM
GI50 [20]: 4.3 µM
TGI [20]: 17.6 µM
GI50 [21]: 39.7 µM
TGI [21]: > 100 µM
GI50 [22]: 8.04 µM
TGI [22]: 23.7 µM
GI50 [23]: 3.71 µM
TGI [23]: 14.5 µM
GI50 [24]: 5.11 µM
TGI [24]: 18.7 µM
GI50 [25]: 7.47 µM
TGI [25]: 31.1 µM
GI50 [26]: 12.8 µM
TGI [26]: 33 µM
GI50 [27]: 1.55 µM
TGI [27]: > 100 µM
GI50 [28]: 6.61 µM
TGI [28]: 29.1 µM
GI50 [29]: 4 µM
TGI [29]: 16.5 µM
GI50 [30]: 4.71 µM
TGI [30]: 19.2 µM
GI50 [31]: 11.4 µM
TGI [31]: 36.1 µM
GI50 [32]: 1.74 µM
TGI [32]: > 100 µM
GI50 [33]: 14.6 µM
TGI [33]: 33.8 µM
GI50 [34]: 1.45 µM
TGI [34]: 4.36 µM
GI50 [35]: 0.605 µM
TGI [35]: > 100 µM
GI50 [36]: 1.92 µM
TGI [36]: 4.23 µM
GI50 [37]: 3.51 µM
TGI [37]: 13.7 µM
GI50 [38]: 10.9 µM
TGI [38]: 25.8 µM
GI50 [39]: 7.23 µM
TGI [39]: 53.9 µM
GI50 [40]: 11 µM
TGI [40]: 24 µM
GI50 [41]: 3.21 µM
TGI [41]: > 100 µM
GI50 [42]: 2.58 µM
TGI [42]: > 100 µM
GI50 [43]: 10.6 µM
TGI [43]: 22.5 µM
GI50 [44]: 2.8 µM
TGI [44]: 8.76 µM
GI50 [45]: 12.2 µM
TGI [45]: 27.4 µM
GI50 [46]: 5.79 µM
TGI [46]: > 100 µM
GI50 [47]: 22.3 µM
TGI [47]: > 100 µM
GI50 [48]: 3.38 µM
TGI [48]: 12.6 µM
GI50 [49]: 7.62 µM
TGI [49]: 23.5 µM
GI50 [50]: 1.54 µM
TGI [50]: 3.32 µM
GI50 [51]: 6.53 µM
TGI [51]: 23.4 µM
GI50 [52]: 2.67 µM
TGI [52]: 8.1 µM
GI50 [53]: 16.9 µM
TGI [53]: 72.2 µM
GI50 [54]: 20.5 µM
TGI [54]: 71.4 µM
GI50 [55]: 3.37 µM
TGI [55]: 18.5 µM
GI50 [56]: 19 µM
TGI [56]: 66.5 µM
